In US20160022675A1, “PROCESSES FOR PREPARING TETRAHYDROISOQUINOLINES” (BRISTOL-MYERS SQUIBB COMPANY, priority 2013, published 2016):

Columns and labels:
[1] = test system: mouse tail suspension model of depression; assay: Mouse tail suspension model of depression; format: in vivo; conditions: PO
Procedure: (§1) The effects of Compound 1-(4S) in the mouse tail suspension model of depression and target site occupancy were assessed to compare occupancies associated with the behavioral response. The mouse tail suspension model is known the art. […] The lowest effective dose of Compound 1-(4S), 0.3 mg/kg, PO, decreased immobility by 77% relative to vehicle-treated controls. […] Administration of Compound 1-(4S) led to dose-dependent occupancy of SERT, NET, and DAT binding sites in the brain. At the lowest behaviorally-effective dose (0.3 mg/kg), occupancies were 86±1% of SERT, 76±3% of NET, and 28±3% of DAT. At 1 mg/kg, occupancies were 89±1%, 82±1% and 54±3% at SERT, NET, and DAT, respectively. Pharmacokinetics and pharmacodynamics (PD) in mouse, rat, and dog focused primarily on DAT occupancy since SERT and NET occupancies were saturated by drug for most, if not all, of the times studied. DAT occupancy increased as a function of increasing plasma exposure. The DAT occupancy to total plasma level could be fitted using a single binding site model and plasma level ED50 (the dose producing 50% effect) values could be calculated.

[2] = target: T1, DAT (Rattus norvegicus, UniProt P23977); assay: DAT occupancy, rat; format: in vivo
T1 construct: from tissue; host or cells: rat, in vivo dosing
T1 sequence (P23977 whole entry): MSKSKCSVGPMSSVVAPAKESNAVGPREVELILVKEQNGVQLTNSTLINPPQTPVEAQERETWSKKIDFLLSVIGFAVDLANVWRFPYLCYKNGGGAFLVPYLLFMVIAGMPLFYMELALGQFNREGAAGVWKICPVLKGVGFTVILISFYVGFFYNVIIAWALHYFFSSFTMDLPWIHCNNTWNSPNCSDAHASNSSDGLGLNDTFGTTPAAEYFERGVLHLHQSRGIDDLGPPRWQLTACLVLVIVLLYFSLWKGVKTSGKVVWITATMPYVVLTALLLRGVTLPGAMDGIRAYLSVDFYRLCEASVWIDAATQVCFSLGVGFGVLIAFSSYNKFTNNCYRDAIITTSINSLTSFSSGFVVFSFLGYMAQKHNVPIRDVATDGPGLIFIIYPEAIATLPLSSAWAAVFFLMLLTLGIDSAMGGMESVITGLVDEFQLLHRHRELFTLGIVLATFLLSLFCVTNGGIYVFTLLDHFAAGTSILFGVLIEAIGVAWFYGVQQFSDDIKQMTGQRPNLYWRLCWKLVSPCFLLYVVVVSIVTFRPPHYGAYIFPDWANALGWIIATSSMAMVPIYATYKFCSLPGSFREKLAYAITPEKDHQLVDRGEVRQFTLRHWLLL
Procedure: as §1
(§2) To better understand the margin between doses of Compound 1-(4S) that are effective in the mouse tail suspension models and those that lead to monoamine-related side effects, locomotor activity was examined to assess psychostimulant properties and stereotypy was examined to assess more severe DA-related side effects. Increased body temperature, another effect that has been attributed to DA pharmacology, was also studied. In the mouse, Compound 1-(4S) increased locomotor activity and stereotypy scores at doses of 3.0 mg/kg and 10 mg/kg, respectively. Thus, the margin between the Compound 1-(4S) effective dose in the mouse tail suspension and increased locomotor activity was 10-fold and the margin versus activity in stereotypy was 30-fold. The thermogenic effect of Compound 1-(4S) was studied in mice and rats by measuring changes in rectal temperature following administration of the compound. […] The onset of the thermogenesis was earlier as the dose was increased. The levels of SERT and NET occupancy were over 80% and appeared saturated across the doses tested. The DAT occupancy was dose-dependent, with 55±5.7% at 1.0 mg/kg, 74±6% at 3.0 mg/kg, and 83±0.8% at 10 mg/kg. […] The onset of the temperature increase was earlier at the highest dose of 10 mg/kg. […] The DAT occupancy was 37±8.3%, 55±5.2%, and 71±1.7% at 1.0, 3.0, and 10 mg/kg, respectively. Consistent with data obtained with mice, the thermogenic effect of Compound 1-(4S) is dose dependently related to DAT occupancy and at least 50% DAT occupancy is needed for this effect.

[3] = target: T2, SERT (Rattus norvegicus, UniProt P31652); assay: SERT occupancy, rat; format: in vivo; conditions: thermogenesis study, all 3 doses (1.0, 3.0, 10 mg/kg)
T2 construct: from tissue; host or cells: rat, in vivo dosing
T2 sequence (P31652 whole entry): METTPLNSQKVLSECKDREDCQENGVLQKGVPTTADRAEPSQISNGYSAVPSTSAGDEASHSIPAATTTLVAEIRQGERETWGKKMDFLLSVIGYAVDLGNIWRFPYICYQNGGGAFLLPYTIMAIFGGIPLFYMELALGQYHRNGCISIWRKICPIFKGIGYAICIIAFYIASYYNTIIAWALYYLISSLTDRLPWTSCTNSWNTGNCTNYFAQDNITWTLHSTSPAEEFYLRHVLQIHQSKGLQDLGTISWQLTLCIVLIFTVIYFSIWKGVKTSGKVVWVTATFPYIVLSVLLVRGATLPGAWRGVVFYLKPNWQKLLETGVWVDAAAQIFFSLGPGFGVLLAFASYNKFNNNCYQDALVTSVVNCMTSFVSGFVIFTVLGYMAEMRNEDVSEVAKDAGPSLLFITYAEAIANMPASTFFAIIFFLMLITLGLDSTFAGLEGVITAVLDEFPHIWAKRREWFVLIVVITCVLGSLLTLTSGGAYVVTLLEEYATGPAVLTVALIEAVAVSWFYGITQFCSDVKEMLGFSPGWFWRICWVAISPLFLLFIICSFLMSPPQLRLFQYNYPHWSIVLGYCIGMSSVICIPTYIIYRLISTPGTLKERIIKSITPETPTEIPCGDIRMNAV
Source text: as §2, with “Consistent with data obtained with mice, the thermogenic effect of Compound 1-(4S) is dose dependently related to DAT occupancy and at least 50% DAT occupancy is needed for this effect.” left out

[4] = Solubility profile (USP definition) in solvents; format: physicochemical
[5] = target: DAT (Homo sapiens, UniProt Q01959); assay: [3H]DA uptake into HEK293/hDAT cells; format: cell-based; parameters: expressed in transfected cells; host or cells: HEK293; conditions: read-out: Dopamine reuptake IC50 ([3H]DA uptake)
Sequence of DAT (Homo sapiens, UniProt Q01959) (Q01959 whole entry): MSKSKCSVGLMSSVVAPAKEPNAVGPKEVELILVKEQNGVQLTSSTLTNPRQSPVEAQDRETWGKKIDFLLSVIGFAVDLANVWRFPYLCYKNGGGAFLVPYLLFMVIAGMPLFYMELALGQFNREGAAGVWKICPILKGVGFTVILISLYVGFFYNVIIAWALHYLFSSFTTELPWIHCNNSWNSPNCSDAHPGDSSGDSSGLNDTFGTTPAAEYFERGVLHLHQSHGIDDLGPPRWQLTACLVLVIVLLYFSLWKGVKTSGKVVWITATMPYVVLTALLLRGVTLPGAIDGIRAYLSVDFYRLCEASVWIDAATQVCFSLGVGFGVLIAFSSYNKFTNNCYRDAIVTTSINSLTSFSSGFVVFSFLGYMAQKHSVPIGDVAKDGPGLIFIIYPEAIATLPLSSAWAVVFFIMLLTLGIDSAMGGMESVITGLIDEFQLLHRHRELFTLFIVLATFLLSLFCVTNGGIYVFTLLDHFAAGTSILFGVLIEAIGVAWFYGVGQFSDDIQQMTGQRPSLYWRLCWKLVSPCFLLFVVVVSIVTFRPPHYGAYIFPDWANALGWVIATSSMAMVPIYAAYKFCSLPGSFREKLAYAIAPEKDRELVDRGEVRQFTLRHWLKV
Source text: (§3) Cell-based assays were used to determine the ability of Compound 1-(4S) to inhibit reuptake of 3H-labeled DA ([3H]DA), NE ([3H]NE), and 5-HT ([3H]5-HT).

[6] = target: NET (Homo sapiens, UniProt P23975); assay: [3H]NE uptake into HEK293/hNET cells; format: cell-based; parameters: expressed in transfected cells; host or cells: HEK293; conditions: read-out: Norepinephrine reuptake IC50 ([3H]NE uptake)
Sequence of NET (P23975 whole entry): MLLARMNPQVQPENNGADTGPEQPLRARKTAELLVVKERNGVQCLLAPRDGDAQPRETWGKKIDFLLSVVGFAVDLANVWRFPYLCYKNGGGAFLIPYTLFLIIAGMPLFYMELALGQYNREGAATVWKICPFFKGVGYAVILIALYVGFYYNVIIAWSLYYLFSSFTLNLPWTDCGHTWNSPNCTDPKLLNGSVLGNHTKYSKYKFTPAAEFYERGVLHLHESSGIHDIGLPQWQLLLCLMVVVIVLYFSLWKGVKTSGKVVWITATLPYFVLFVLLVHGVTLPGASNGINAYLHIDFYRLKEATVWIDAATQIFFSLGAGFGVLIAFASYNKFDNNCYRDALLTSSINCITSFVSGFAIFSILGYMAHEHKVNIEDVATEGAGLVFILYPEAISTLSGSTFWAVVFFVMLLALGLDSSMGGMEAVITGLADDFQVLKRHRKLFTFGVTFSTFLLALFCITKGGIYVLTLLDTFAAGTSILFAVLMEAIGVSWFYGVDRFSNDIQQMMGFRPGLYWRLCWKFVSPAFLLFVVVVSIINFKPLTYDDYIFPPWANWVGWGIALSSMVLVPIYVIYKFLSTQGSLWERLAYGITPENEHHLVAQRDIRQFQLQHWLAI
Source text: as §3

[7] = target: T3, SERT (Homo sapiens, UniProt P31645); assay: [3H]5-HT uptake into HEK293/hSERT cells; format: cell-based; parameters: expressed in transfected cells; host or cells: HEK293; conditions: read-out: Serotonin reuptake IC50 ([3H]5-HT uptake)
T3 sequence (P31645 whole entry): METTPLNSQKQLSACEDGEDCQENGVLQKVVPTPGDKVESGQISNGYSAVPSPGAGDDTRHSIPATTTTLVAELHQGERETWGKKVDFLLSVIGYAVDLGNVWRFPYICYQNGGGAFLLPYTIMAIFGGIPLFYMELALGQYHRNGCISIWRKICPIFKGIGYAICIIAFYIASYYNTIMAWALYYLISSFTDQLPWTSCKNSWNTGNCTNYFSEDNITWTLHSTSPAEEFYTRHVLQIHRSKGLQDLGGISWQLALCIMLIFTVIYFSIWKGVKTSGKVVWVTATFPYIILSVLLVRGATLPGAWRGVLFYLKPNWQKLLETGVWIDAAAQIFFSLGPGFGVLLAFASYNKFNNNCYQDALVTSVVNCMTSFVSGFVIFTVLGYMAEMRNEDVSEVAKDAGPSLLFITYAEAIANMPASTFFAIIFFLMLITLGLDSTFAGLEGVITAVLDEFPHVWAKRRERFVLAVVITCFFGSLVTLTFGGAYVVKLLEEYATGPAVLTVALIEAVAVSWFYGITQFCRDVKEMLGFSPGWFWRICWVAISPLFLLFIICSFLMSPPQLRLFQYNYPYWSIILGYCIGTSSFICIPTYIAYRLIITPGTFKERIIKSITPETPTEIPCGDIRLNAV
Source text: as §3

[8] = target: T3, SERT; assay: Competition binding, membranes from HEK cells overexpressing SERT; parameters: expressed in transfected cells; host or cells: HEK cells (membranes)
Procedure: Competition binding experiments were performed to determine the in vitro binding potencies (IC50 values) of Compound 1-(4S) for SERT, DAT, and NET. Membranes prepared from human embryonic kidney (HEK) cells overexpressing each transporter were employed. Radioligands were used at their respective affinity constant (Kd) concentrations for each transporter to enable direct comparisons of the IC50 values between assays.

CN1Cc2cc(-c3ccc(N)nn3)ccc2[C@H](c2ccc3ccccc3c2)C1 [Compound 1-(4S), 6-[(4S)-1,2,3,4-tetrahydro-2-methyl-4-(2-naphthalenyl)-7-isoquinolinyl]-3-pyridazinamine]
decrease in immobility relative to vehicle-treated controls ([1]; 0.3 mg/kg): 77% | decrease in immobility ([1]; 1.0 mg/kg): 91% | lowest effective dose, tail suspension [1]: 0.3 mg/kg | EC50 ([2]; single binding site model, read-out: total plasma concentration producing 50% effect (EC50), DAT occupancy): 47 nM | receptor occupancy at 1 mg/kg ([2]; thermogenesis study, 1.0 mg/kg): 37 ± 8.3% | receptor occupancy at 3 mg/kg ([2]; thermogenesis study, 3.0 mg/kg): 55 ± 5.2% | receptor occupancy at 10 mg/kg ([2]; thermogenesis study, 10 mg/kg): 71 ± 1.7% | SERT occupancy [3]: nearly saturated | Solubility profile (USP definition) ([4]; N,N-dimethylacetamide, dimethylsulfoxide): soluble: N,N-dimethylacetamide, dimethylsulfoxide | Solubility profile (USP definition) ([4]; PEG 400): sparingly soluble: PEG 400 | Solubility profile (USP definition) ([4]; acetonitrile, ethyl acetate, n-butanol): very slightly soluble: acetonitrile, ethyl acetate, | Solubility profile (USP definition) ([4]; isopropanol, acetone, ethanol, methanol, propylene glycol, dichloromethane): slightly soluble: isopropanol, acetone, ethanol, | Solubility profile (USP definition) ([4]; n-heptane): practically insoluble: n-heptane | Solubility profile (USP definition) ([4]; tetrahydrofuran): freely soluble: tetrahydrofuran | IC50 [5]: 31.5 ± 2.5 nM | IC50 [6]: 37.5 ± 2.5 nM | IC50 [7]: 18.5 ± 5.5 nM | IC50 [8]: 1.08 ± 0.09 nM
